# Source: patent US20250017903A1, “USE OF EDARAVONE IN TREATMENT OF AUTISM SPECTRUM DISORDER” (SUZHOU AUZONE BIOLOGICAL TECHNOLOGY CO., LTD., priority 2021, published 2025)
# Experiments:
# [1] = tested on: glutathione S-transferase (GST); test: GST activity detection in brain tissue of VPA model rats; assay type: in vivo, rat; details: for GST activity in the hippocampus (HIP) / GST activity in the prefrontal cortex (PFC): after 28 days of gavage, mean ± SE
# Method: (§1) On the 26th day after the offspring were born, the modeled VPA group was randomly divided into 6 groups: placebo group (n=19, soluplus 428 mg/kg), positive drug (cromolyn sodium) group (n=14, cromolyn sodium 6.3 mg/kg), positive drug solvent (NS) group (n=12, equal dose of normal saline), EDA low-dose group (n=12, Edaravone 3 mg/kg), EDA medium-dose group (n=12, Edaravone 10 mg/kg) and EDA high-dose group (n=22, Edaravone 30 mg/kg); and another CON group (n=9). The positive drug group and the positive drug solvent group were given intraperitoneal injection, and the placebo group and each dose group of EDA were administrated by oral gavage, once a day for 28 consecutive days. Three-chamber social tests were conducted after 14 and 28 days of administration, and an open field test was conducted after 28 days of administration. After the animals were sacrificed, 6 animals were randomly selected from each group of the placebo group and each dose group of EDA, and the prefrontal cortex, hippocampus, cerebellum and blood were collected to detect oxidative stress-related indicators, so as to detect the antioxidant capacity of the body.
# After 28 days of gavage treatment, the results of glutathione S-transferase (GST) activity detection in the prefrontal cortex (PFC) and hippocampus (HIP) are shown in Table 4.
# [2] = tested on: VPA-induced autism model rats; test: Three-chamber social test (social index) in VPA-induced rat autism model; assay type: in vivo; details: for Social index (SI): VPA rats, mean ± SE
# Method: (§2) Twenty-five SD pregnant rats were given a single intraperitoneal injection of 500 mg/kg sodium valproate (VPA) on 12.5 embryonic day and delivered on 21 embryonic day, and the male offspring were retained as the VPA group. Five pregnant rats in the control group were given a single intraperitoneal injection of normal saline of the same amount on 12.5 embryonic day and delivered on 21 embryonic day; and the male offspring were designated as the CON group.
# (§3) When the offspring rats were 25th day old, an open field test was conducted to observe the grooming time, which reflects the repetitive and stereotyped behaviors of the animals); a three-chamber social test was conducted to observe the Social Index (SI), Social Index=(Time when the animal enters the unfamiliar rat area-time when the animal enters the empty cage area)÷(time when the animal enters the unfamiliar rat area+time when the animal enters the empty cage area), reflecting the social ability of experimental animals.
# as §1
# [3] = tested on: VPA-induced autism model rats; test: Open field test (grooming time) in VPA-induced rat autism model; assay type: in vivo; details: for Grooming time: VPA rats, mean ± SE, in s (unit assumed); for Grooming time compared with before treatment: self-comparison, p<0.05 (FIG. 5)
# Method: as §2, §3, §1
# [4] = tested on: superoxide dismutase (SOD); test: SOD activity detection in brain tissue of VPA model rats; assay type: in vivo, rat; details: for SOD activity in the cerebellum (CE) / SOD activity in the prefrontal cortex (PFC): after 28 days of gavage, mean ± SE
# Method: as §1
# After 28 days of gavage treatment, the results of superoxide dismutase (SOD) activity detection in the prefrontal cortex (PFC) and cerebellum (CE) are shown in Table 3.
# [5] = tested on: reduced glutathione (GSH); test: GSH detection in hippocampus and serum of VPA model rats; assay type: in vivo, rat; details: for GSH activity in the hippocampus (HIP) / GSH activity in the serum: after 28 days of gavage, mean ± SE
# Method: as §1
# After 28 days of gavage treatment, the results of reduced glutathione (GSH) activity detection in hippocampus (HIP) and serum are shown in Table 5.
# cysteine (Cys) = test: Cys content detection in serum of VPA model rats; assay type: in vivo, rat; details: for Cys content in serum: after 28 days of gavage, mean ± SE
# Method: as §1
# [6] = Day 28, EDA 3 mg/kg oral gavage once a day
# [7] = Day 28, EDA 10 mg/kg oral gavage once a day
# [8] = Day 28, EDA 30 mg/kg oral gavage once a day
# [9] = after 14 days of treatment, each dose group of EDA and cromolyn sodium group, p<0.01 (FIG. 4)
# [10] = before treatment (baseline), EDA 3 mg/kg group
# [11] = before treatment (baseline), EDA 10 mg/kg group
# [12] = before treatment (baseline), EDA 30 mg/kg group
# [13] = Day 28, cromolyn sodium 6.3 mg/kg intraperitoneal once a day
# [14] = before treatment (baseline), cromolyn sodium 6.3 mg/kg group
structure (smiles),measurement,setting,value
"CC1=NN(c2ccccc2)C(=O)C1 [EDA, 3-methyl-1-phenyl-2-pyrazolin-5-one]",GST activity in the hippocampus (HIP),[1]; EDA 3 mg/kg,144.5 ± 59.64 U/mgprot
same,GST activity in the prefrontal cortex (PFC),[1]; EDA 3 mg/kg,39.54 ± 13.34 U/mgprot
same,GST activity in the hippocampus (HIP),[1]; EDA 10 mg/kg,117.7 ± 28.12 U/mgprot
same,GST activity in the prefrontal cortex (PFC),[1]; EDA 10 mg/kg,46.93 ± 13.31 U/mgprot
same,GST activity in the hippocampus (HIP),[1]; EDA 30 mg/kg,295.4 ± 54.67 U/mgprot
same,GST activity in the prefrontal cortex (PFC),[1]; EDA 30 mg/kg,103.8 ± 22.27 U/mgprot
same,GST activity in the prefrontal cortex (PFC) compared with the placebo group,"[1]; high-dose EDA group, p<0.01 (FIG. 9)",significantly increased
same,GST activity in the hippocampus (HIP) compared with the placebo group,"[1]; high-dose EDA group, p<0.01 (FIG. 10)",significantly increased
same,Social index (SI),"[2]; Day 14, EDA 3 mg/kg oral gavage once a day",0.37 ± 0.14
same,Social index (SI),"[2]; Day 14, EDA 10 mg/kg oral gavage once a day",0.42 ± 0.15
same,Social index (SI),"[2]; Day 14, EDA 30 mg/kg oral gavage once a day",0.51 ± 0.11
same,Social index (SI),[2]; [6],0.48 ± 0.10
same,Social index (SI),[2]; [7],0.53 ± 0.09
same,Social index (SI),[2]; [8],0.55 ± 0.06
same,Social index compared with the placebo group,[2]; [9],significantly improved
same,Social index compared with the placebo group,"[2]; after 28 days of treatment, each dose group of EDA, p<0.05, high dose p<0.01 (FIG. 4)",significantly improved
same,Social index (SI),[2]; [10],−0.12 ± 0.11
same,Social index (SI),[2]; [11],−0.07 ± 0.15
same,Social index (SI),[2]; [12],−0.04 ± 0.12
same,Social index compared with before treatment,"[2]; each dose group, after 14 and 28 days of continuous gavage, self-comparison (FIG. 3)",increased significantly
same,Grooming time,[3]; [6],6.29 ± 1.72
same,Grooming time,[3]; [7],5.04 ± 1.67
same,Grooming time,[3]; [8],17.27 ± 5.78
same,Grooming time compared with the placebo group,"[3]; after 28 days of continuous gavage, each dose group of EDA, p<0.05, low and medium dose p<0.01 (FIG. 6)",significantly reduced
same,Grooming time compared with before treatment,[3]; after 28 days of treatment,significantly reduced
same,Grooming time compared with the positive drug (cromolyn sodium) group,"[3]; after 28 days, EDA low-dose (3 mg/kg) and medium-dose (10 mg/kg) groups (FIG. 6)",significantly reduced
same,Grooming time,[3]; [10],29.17 ± 5.82
same,Grooming time,[3]; [11],20.76 ± 4.42
same,Grooming time,[3]; [12],36.3 ± 5.08
same,SOD activity in the prefrontal cortex compared with the placebo group,"[4]; EDA medium-dose and high-dose groups, p<0.05, high dose p<0.001 (FIG. 7)",significantly increased
same,SOD activity in the cerebellum (CE),[4]; EDA 3 mg/kg,67.04 ± 11.3 U/mgprot
same,SOD activity in the prefrontal cortex (PFC),[4]; EDA 3 mg/kg,124.6 ± 5.73 U/mgprot
same,SOD activity in the cerebellum (CE),[4]; EDA 10 mg/kg,83.07 ± 3.39 U/mgprot
same,SOD activity in the prefrontal cortex (PFC),[4]; EDA 10 mg/kg,203.4 ± 14.37 U/mgprot
same,SOD activity in the cerebellum (CE),[4]; EDA 30 mg/kg,138.7 ± 18.62 U/mgprot
same,SOD activity in the prefrontal cortex (PFC),[4]; EDA 30 mg/kg,315 ± 42.53 U/mgprot
same,GSH activity in the serum compared with the placebo group,"[5]; EDA high-dose group, p<0.01 (FIG. 12)",even more significantly increased
same,GSH activity in the hippocampus (HIP) compared with the placebo group,"[5]; EDA high-dose group, p<0.05 (FIG. 11)",significantly increased
same,GSH activity in the hippocampus (HIP),[5]; EDA 3 mg/kg,14.44 ± 7.97 U/mgprot
same,GSH activity in the serum,[5]; EDA 3 mg/kg,9.6 ± 2.14 U/mgprot
same,GSH activity in the hippocampus (HIP),[5]; EDA 10 mg/kg,49.39 ± 10.34 U/mgprot
same,GSH activity in the serum,[5]; EDA 10 mg/kg,10.35 ± 1.92 U/mgprot
same,GSH activity in the hippocampus (HIP),[5]; EDA 30 mg/kg,78.87 ± 17.13 U/mgprot
same,GSH activity in the serum,[5]; EDA 30 mg/kg,21.45 ± 0.86 U/mgprot
same,Cys content in the blood compared with the placebo group,"cysteine (Cys); EDA high-dose group, after 28 days of treatment, p<0.0001 (FIG. 13)",significantly higher
same,Cys content in serum,cysteine (Cys); EDA 3 mg/kg,0.35 ± 0.05 µmol/mL
same,Cys content in serum,cysteine (Cys); EDA 10 mg/kg,0.38 ± 0.13 µmol/mL
same,Cys content in serum,cysteine (Cys); EDA 30 mg/kg,1.15 ± 0.10 µmol/mL
O=C(O)c1cc(=O)c2c(OCC(O)COc3cccc4oc(C(=O)O)cc(=O)c34)cccc2o1 [cromolyn sodium],Social index (SI),"[2]; Day 14, cromolyn sodium 6.3 mg/kg intraperitoneal once a day",0.08 ± 0.37
same,Social index (SI),[2]; [13],0.42 ± 0.07
same,Social index compared with the placebo group,[2]; [9],significantly improved
same,"Social index, positive drug versus positive drug solvent group","[2]; after 28 days of treatment, cromolyn sodium 6.3 mg/kg intraperitoneal (FIG. 4)",no significant difference
same,Social index (SI),[2]; [14],−0.13 ± 0.12
same,Grooming time,[3]; [13],12.41 ± 2.01
same,"Grooming time, positive drug solvent group versus positive drug group","[3]; after 28 days of treatment, cromolyn sodium 6.3 mg/kg intraperitoneal (FIG. 6)",no significant difference
same,Grooming time compared with before treatment,[3]; after 28 days of treatment,significantly reduced
same,Grooming time,[3]; [14],27.63 ± 5.78
